Reference: US11446287B2, “Compounds and methods for EP300 or CBP modulation and indications therefor” (Opna Immuno-Oncology SA, priority 2019, dated 2022)

Each compound was assayed against T1, Recombinant human BRD4 containing dual bromodomains (BRD4-BD12 (1-477)) (Homo sapiens, UniProt O60885) (assay: BRD4 Alphascreen binding assay).
T1 construct: Recombinant human BRD4 containing dual bromodomains (BRD4-BD12 (1-477)); made in house; host or cells: E. coli BL21-CodonPlus (DE3), modified pET vector
Summary of the method: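 AlphaScreen proximity between Ni-chelate-bound BRD4-BD12 (1-477) and streptavidin-captured H4 K5/K8/K12/K16-acetyl peptide measured after 1 h room-temperature compound incubation and 30 min with 7.5 μg/ml beads. Buffer: 50 mM HEPES pH 7.5, 50 mM NaCl, 0.01% BSA, 0.01% Triton X-100; data plate-normalized and four-parameter fit for IC50.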
`Cc1noc(C)c1-c1cnc2c(c1)c(-c1ccc(C(=O)O)cc1OC(F)(F)F)cn2-c1cnc(N)nc1` [P-0320, 4-(1-(2-aminopyrimidin-5-yl)-5-(3,5-dimethylisoxazol-4-yl)-1H-pyrrolo[2,3-b]pyridin-3-yl)-3-(trifluoromethoxy)benzoic acid] gave an IC50 of 1 to 8 µM.
For `Cc1noc(C)c1-c1cnc2c(c1)c(-c1ccc(C(=O)O)cc1OC(F)(F)F)cn2-c1cnc(N(C)C)nc1` [P-0321], the IC50 was 1 to 8 µM.
`Cc1noc(C)c1-c1cnc2c(c1)c(-c1ccc(C(=O)O)cc1OC(F)(F)F)cn2-c1ccc(C(=O)O)cc1` [P-0322, 4-(1-(4-carboxyphenyl)-5-(3,5-dimethylisoxazol-4-yl)-1H-pyrrolo[2,3-b]pyridin-3-yl)-3-(trifluoromethoxy)benzoic acid] gave an IC50 of 1 to 8 µM.
`Cc1noc(C)c1-c1cnc2c(c1)c(-c1ccc(C(=O)O)cc1OC(F)(F)F)cn2-c1ccc(C(N)=O)cc1` [P-0323, 4-(1-(4-carbamoylphenyl)-5-(3,5-dimethylisoxazol-4-yl)-1H-pyrrolo[2,3-b]pyridin-3-yl)-3-(trifluoromethoxy)benzoic acid] gave an IC50 of 1 to 8 µM.
For `COc1cc(C(=O)O)ncc1-c1cn(-c2ccncc2Cl)c2ncc(-c3c(C)noc3C)cc12` [P-0324, 5-(1-(3-chloropyridin-4-yl)-5-(3,5-dimethylisoxazol-4-yl)-1H-pyrrolo[2,3-b]pyridin-3-yl)-4-methoxypicolinic acid], the IC50 was 1 to 8 µM.
Compound `Cc1noc(C)c1-c1cnc2c(c1)c(-c1ccc(C(=O)O)cc1OCC(F)F)cn2[C@H]1CCOC1` [P-0325, (S)-3-(2,2-difluoroethoxy)-4-(5-(3,5-dimethylisoxazol-4-yl)-1-(tetrahydrofuran-3-yl)-1H-pyrrolo[2,3-b]pyridin-3-yl)benzoic acid] has an IC50 of 8 to 1000 µM.
`CCn1cc(-n2cc(-c3ccc(C(=O)O)cc3OCC(F)F)c3cc(-c4c(C)noc4C)cnc32)c(C)n1` [P-0326, 3-(2,2-difluoroethoxy)-4-(5-(3,5-dimethylisoxazol-4-yl)-1-(1-ethyl-3-methyl-1H-pyrazol-4-yl)-1H-pyrrolo[2,3-b]pyridin-3-yl)benzoic acid] showed an IC50 of 8 to 1000 µM.
`Cc1noc(C)c1-c1cnc2c(c1)c(-c1c(F)cc(C(=O)O)cc1OCC(F)F)cn2-c1ccccc1` [P-0327, 3-(2,2-difluoroethoxy)-4-(5-(3,5-dimethylisoxazol-4-yl)-1-phenyl-1H-pyrrolo[2,3-b]pyridin-3-yl)-5-fluorobenzoic acid] gave an IC50 of 1 to 8 µM.
In the case of `Cc1noc(C)c1-c1cnc2c(c1)c(-c1ccc(C(=O)O)cc1OCC(F)F)cn2-c1cnc(N2CCC2)nc1` [P-0328, 4-(1-(2-(azetidin-1-yl)pyrimidin-5-yl)-5-(3,5-dimethylisoxazol-4-yl)-1H-pyrrolo[2,3-b]pyridin-3-yl)-3-(2,2-difluoroethoxy)benzoic acid], the IC50 is reported as 8 to 1000 µM.
`CCOc1cc(C(=O)O)nc(OCC)c1-c1cn(-c2ccc(F)cc2F)c2ncc(-c3c(C)noc3C)cc12` [P-0329, 5-(1-(2,4-difluorophenyl)-5-(3,5-dimethylisoxazol-4-yl)-1H-pyrrolo[2,3-b]pyridin-3-yl)-4,6-diethoxypicolinic acid] gave an IC50 of 1 to 8 µM.
Compound `CCOc1cc(C(=O)O)c(F)cc1-c1cn(-c2ccc(F)cc2F)c2ncc(-c3c(C)noc3C)cc12` [P-0330, 4-(1-(2,4-difluorophenyl)-5-(3,5-dimethylisoxazol-4-yl)-1H-pyrrolo[2,3-b]pyridin-3-yl)-5-ethoxy-2-fluorobenzoic acid] has an IC50 of 1 to 8 µM.
Compound `Cc1noc(C)c1-c1cnc2c(c1)c(-c1c(Cl)cc(C(=O)O)cc1OCC(F)F)cn2-c1cnc(N2CCC2)nc1` [P-0331, 4-(1-(2-(azetidin-1-yl)pyrimidin-5-yl)-5-(3,5-dimethylisoxazol-4-yl)-1H-pyrrolo[2,3-b]pyridin-3-yl)-3-chloro-5-(2,2-difluoroethoxy)benzoic acid] has an IC50 of 0.0001 to 1 µM.
Compound `Cc1noc(C)c1-c1cnc2c(c1)c(-c1c(Cl)cc(C(=O)O)cc1OCC(F)F)cn2-c1ccccc1` [P-0332, 3-chloro-5-(2,2-difluoroethoxy)-4-(5-(3,5-dimethylisoxazol-4-yl)-1-phenyl-1H-pyrrolo[2,3-b]pyridin-3-yl)benzoic acid] has an IC50 of 1 to 8 µM.
`Cc1noc(C)c1-c1cnc2c(c1)c(-c1c(Cl)cc(C(=O)O)cc1OCC(F)F)cn2[C@H]1CCOC1` [P-0333, (S)-3-chloro-5-(2,2-difluoroethoxy)-4-(5-(3,5-dimethylisoxazol-4-yl)-1-(tetrahydrofuran-3-yl)-1H-pyrrolo[2,3-b]pyridin-3-yl)benzoic acid] showed an IC50 of 8 to 1000 µM.
With `Cc1noc(C)c1-c1cnc2c(c1)c(-c1ccc(C(=O)O)cc1OC1CCC1)cn2-c1ncccc1C#N` [P-0334, 4-(1-(3-cyanopyridin-2-yl)-5-(3,5-dimethylisoxazol-4-yl)-1H-pyrrolo[2,3-b]pyridin-3-yl)-3-cyclobutoxybenzoic acid] the IC50 was 8 to 1000 µM.
In the case of `Cc1noc(C)c1-c1cnc2c(c1)c(-c1ccc(C(=O)O)cc1OC(F)(F)F)cn2C1(CC#N)CCC1` [P-0335, 4-(1-(1-(cyanomethyl)cyclobutyl)-5-(3,5-dimethylisoxazol-4-yl)-1H-pyrrolo[2,3-b]pyridin-3-yl)-3-(trifluoromethoxy)benzoic acid], the IC50 is reported as 8 to 1000 µM.
Compound `Cc1noc(C)c1-c1cnc2c(c1)c(-c1ccc(C(=O)O)cc1OC(C)C)cn2-c1ncccc1C#N` [P-0336, 4-(1-(3-cyanopyridin-2-yl)-5-(3,5-dimethylisoxazol-4-yl)-1H-pyrrolo[2,3-b]pyridin-3-yl)-3-isopropoxybenzoic acid] has an IC50 of 8 to 1000 µM.
`Cc1noc(C)c1-c1cnc2c(c1)c(-c1ccc(C(=O)O)cc1OC1CC1)cn2-c1ncccc1C#N` [P-0337, 4-(1-(3-cyanopyridin-2-yl)-5-(3,5-dimethylisoxazol-4-yl)-1H-pyrrolo[2,3-b]pyridin-3-yl)-3-cyclopropoxybenzoic acid] gave an IC50 of 8 to 1000 µM.
`Cc1noc(C)c1-c1cnc2c(c1)c(-c1ccc(C(=O)O)cc1OCC(F)F)cn2C(C1CC1)C1CC1` [P-0338, 4-(1-(dicyclopropylmethyl)-5-(3,5-dimethylisoxazol-4-yl)-1H-pyrrolo[2,3-b]pyridin-3-yl)-3-(2,2-difluoroethoxy)benzoic acid] gave an IC50 of 8 to 1000 µM.
Compound `COc1cc(C(=O)O)ncc1-c1cn(C(C2CC2)C2CC2)c2ncc(-c3c(C)noc3C)cc12` [P-0339, 5-(1-(dicyclopropylmethyl)-5-(3,5-dimethylisoxazol-4-yl)-1H-pyrrolo[2,3-b]pyridin-3-yl)-4-methoxypicolinic acid] has an IC50 of 1 to 8 µM.
Work on `Cc1noc(C)c1-c1cnc2c(c1)c(-c1c(Cl)cc(C(=O)O)cc1OCC(F)F)cn2C(C1CC1)C1CC1` [P-0340, 3-chloro-4-(1-(dicyclopropylmethyl)-5-(3,5-dimethylisoxazol-4-yl)-1H-pyrrolo[2,3-b]pyridin-3-yl)-5-(2,2-difluoroethoxy)benzoic acid] yielded an IC50 of 8 to 1000 µM.
With `Cc1noc(C)c1-c1cnc2c(c1)c(-c1ccc(C(=O)O)cc1OC1CCC1)cn2C1CCOCC1` [P-0341, 3-cyclobutoxy-4-(5-(3,5-dimethylisoxazol-4-yl)-1-(tetrahydro-2H-pyran-4-yl)-1H-pyrrolo[2,3-b]pyridin-3-yl)benzoic acid] the IC50 was 8 to 1000 µM.
For `Cc1noc(C)c1-c1cnc2c(c1)c(-c1ccc(C(=O)O)cc1OC(C)C)c(C)n2C(C1CC1)C1CC1` [P-0342, 4-(1-(dicyclopropylmethyl)-5-(3,5-dimethylisoxazol-4-yl)-2-methyl-1H-pyrrolo[2,3-b]pyridin-3-yl)-3-isopropoxybenzoic acid], the IC50 was 8 to 1000 µM.
Compound `Cc1noc(C)c1-c1cnc2c(c1)c(-c1ccc(C(=O)O)cc1OC(F)(F)F)c(C)n2C(C1CC1)C1CC1` [P-0343, 4-(1-(dicyclopropylmethyl)-5-(3,5-dimethylisoxazol-4-yl)-2-methyl-1H-pyrrolo[2,3-b]pyridin-3-yl)-3-(trifluoromethoxy)benzoic acid] has an IC50 of 8 to 1000 µM.
With `Cc1noc(C)c1-c1ccc2c(c1)c(-c1ccc(C(=O)O)cc1OC(F)(F)F)cn2C(C1CC1)C1CC1` [P-0344, 4-(1-(dicyclopropylmethyl)-5-(3,5-dimethylisoxazol-4-yl)-1H-indol-3-yl)-3-(trifluoromethoxy)benzoic acid] the IC50 was 8 to 1000 µM.
`Cc1noc(C)c1-c1cnc2c(c1)c(-c1ccc(C(=O)O)cc1OC(F)(F)F)c(C)n2-c1ncccc1C#N` [P-0345, 4-(1-(3-cyanopyridin-2-yl)-5-(3,5-dimethylisoxazol-4-yl)-2-methyl-1H-pyrrolo[2,3-b]pyridin-3-yl)-3-(trifluoromethoxy)benzoic acid] was tested, and the IC50 was 8 to 1000 µM.
Work on `Cc1noc(C)c1-c1cnc2c(c1)c(-c1c(Cl)cc(C(=O)O)cc1OC(F)(F)F)cn2[C@H]1CCOC1` [P-0346, (S)-3-chloro-4-(5-(3,5-dimethylisoxazol-4-yl)-1-(tetrahydrofuran-3-yl)-1H-pyrrolo[2,3-b]pyridin-3-yl)-5-(trifluoromethoxy)benzoic acid] yielded an IC50 of 8 to 1000 µM.
For `Cc1noc(C)c1-c1cnc2c(c1)c(-c1ccc(C(=O)O)cc1OC1CCC1)cn2-c1cnc(N2CCC2)nc1` [P-0347, 4-(1-(2-(azetidin-1-yl)pyrimidin-5-yl)-5-(3,5-dimethylisoxazol-4-yl)-1H-pyrrolo[2,3-b]pyridin-3-yl)-3-cyclobutoxybenzoic acid], the IC50 was 8 to 1000 µM.
`Cc1noc(C)c1-c1cnc2c(c1)c(-c1c(F)cc(C(=O)O)cc1OCC(F)F)cn2-c1cnc(N2CCC2)nc1` [P-0348, 4-(1-(2-(azetidin-1-yl)pyrimidin-5-yl)-5-(3,5-dimethylisoxazol-4-yl)-1H-pyrrolo[2,3-b]pyridin-3-yl)-3-(2,2-difluoroethoxy)-5-fluorobenzoic acid] gave an IC50 of 8 to 1000 µM.
Compound `Cc1nn(C(F)F)cc1-n1cc(-c2ccc(C(=O)O)cc2OCC(F)F)c2cc(-c3c(C)noc3C)cnc21` [P-0349, 3-(2,2-difluoroethoxy)-4-(1-(1-(difluoromethyl)-3-methyl-1H-pyrazol-4-yl)-5-(3,5-dimethylisoxazol-4-yl)-1H-pyrrolo[2,3-b]pyridin-3-yl)benzoic acid] has an IC50 of 8 to 1000 µM.
